# Test results published in ChEMBL document CHEMBL1148115, “Malevamide D: isolation and structure determination of an isodolastatin H analogue from the marine cyanobacterium Symploca hydnoides” (J Nat Prod, 2002).
# pIC50: −log10 of the molar value.
# Experiments:
# Assay type in all cases: functional, cell-based
# [1] = system: HT-29; assay: Cytotoxicity against human HT-29 cells
# [2] = system: P388; assay: Cytotoxicity against mouse P388 cells
# [3] = system: A549; assay: Cytotoxicity against human A549 cells
# [4] = system: SK-MEL-28; assay: Cytotoxicity against human SK-MEL-28 cells
smiles,measurement,setting,value
CC[C@H](C)[C@@H](C(=O)N[C@H](C(=O)N(C)[C@@H](C(C)C)[C@@H](CC(=O)N1CCC[C@H]1[C@H](OC)[C@@H](C)C(=O)O[C@H](CO)Cc1ccccc1)OC)C(C)C)N(C)C [MALEVAMIDE D],pIC50,[1],9.52
same,pIC50,[2],9.52
same,pIC50,[3],9.52
same,pIC50,[4],9.15
